From ChEMBL document CHEMBL3352011, “Identification of novel 4-anilinoquinazoline derivatives as potent EGFR inhibitors both under normoxia and hypoxia” (Bioorg Med Chem, 2014)

Columns and labels:
[1] = test system: HT-29; experiment: cells; type: functional, cell-based; conditions: Homo sapiens, HT-29, 72 h
Description: Antiproliferative activity against human HT-29 cells assessed as inhibition of cell proliferation under normoxia conditions after 72 hrs by SRB assay

[2] = test system: A549; experiment: cells; type: functional, cell-based; conditions: Homo sapiens, A549, 72 h
Description: Antiproliferative activity against human A549 cells assessed as inhibition of cell proliferation under normoxia conditions after 72 hrs by SRB assay

[3] = test system: A549; experiment: cells; type: functional, cell-based; conditions: Homo sapiens, A549, 72 h; remark: listed apart in the source
Description: Antiproliferative activity against human A549 cells assessed as inhibition of cell proliferation under hypoxia conditions after 72 hrs by SRB assay

[4] = molecular target: Epidermal growth factor receptor (Homo sapiens, UniProt P00533);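 also: Wild-type EGFR enzyme inhibition, measured with a Z'-Lyte kinase assay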
Description: Inhibition of wild type EGFR (unknown origin) by Z'-Lyte kinase assay

[5] = test system: HT-29; experiment: cells; type: functional, cell-based; conditions: Homo sapiens, HT-29, 72 h; remark: listed apart in the source
Description: Antiproliferative activity against human HT-29 cells assessed as inhibition of cell proliferation under hypoxia conditions after 72 hrs by SRB assay

[6] = Bioreductive drug activation in pH 7.4 PBS solution assessed as formation of imidazole radical at 4.2 umol incubated for 6 hrs in presence of cysteine and zinc dust by HPLC-Q-ToF-MS method
[7] = Drug metabolism in mouse liver microsomes at 5 uM in presence of NADPH incubated for 30 mins under normoxia conditions by HPLC method; type: ADME; conditions: read-out: Drug metabolism
[8] = test system: A549; experiment: Induction of apoptosis in human A549 cells at 10 uM under normoxia conditions after 72 hrs by annexin VFITC/propidium iodide staining based flow cytometry (reference value: 3.94%); type: functional
[9] = Bioreductive drug activation in pH 7.4 PBS solution assessed as formation of hydroxylamino-imidazole at 4.2 umol incubated for 6 hrs in presence of cysteine and zinc dust by HPLC-Q-ToF-MS method
[10] = test system: A549; experiment: Induction of apoptosis in human A549 cells at 10 uM under hypoxia conditions after 72 hrs by annexin VFITC/propidium iodide staining based flow cytometry (reference value: 4.7%); type: functional
[11] = Drug metabolism in mouse liver microsomes at 5 uM in presence of NADPH incubated for 30 mins under hypoxia conditions by HPLC method; type: ADME; conditions: read-out: Drug metabolism

Epidermal growth factor receptor, sequence (P00533 whole entry): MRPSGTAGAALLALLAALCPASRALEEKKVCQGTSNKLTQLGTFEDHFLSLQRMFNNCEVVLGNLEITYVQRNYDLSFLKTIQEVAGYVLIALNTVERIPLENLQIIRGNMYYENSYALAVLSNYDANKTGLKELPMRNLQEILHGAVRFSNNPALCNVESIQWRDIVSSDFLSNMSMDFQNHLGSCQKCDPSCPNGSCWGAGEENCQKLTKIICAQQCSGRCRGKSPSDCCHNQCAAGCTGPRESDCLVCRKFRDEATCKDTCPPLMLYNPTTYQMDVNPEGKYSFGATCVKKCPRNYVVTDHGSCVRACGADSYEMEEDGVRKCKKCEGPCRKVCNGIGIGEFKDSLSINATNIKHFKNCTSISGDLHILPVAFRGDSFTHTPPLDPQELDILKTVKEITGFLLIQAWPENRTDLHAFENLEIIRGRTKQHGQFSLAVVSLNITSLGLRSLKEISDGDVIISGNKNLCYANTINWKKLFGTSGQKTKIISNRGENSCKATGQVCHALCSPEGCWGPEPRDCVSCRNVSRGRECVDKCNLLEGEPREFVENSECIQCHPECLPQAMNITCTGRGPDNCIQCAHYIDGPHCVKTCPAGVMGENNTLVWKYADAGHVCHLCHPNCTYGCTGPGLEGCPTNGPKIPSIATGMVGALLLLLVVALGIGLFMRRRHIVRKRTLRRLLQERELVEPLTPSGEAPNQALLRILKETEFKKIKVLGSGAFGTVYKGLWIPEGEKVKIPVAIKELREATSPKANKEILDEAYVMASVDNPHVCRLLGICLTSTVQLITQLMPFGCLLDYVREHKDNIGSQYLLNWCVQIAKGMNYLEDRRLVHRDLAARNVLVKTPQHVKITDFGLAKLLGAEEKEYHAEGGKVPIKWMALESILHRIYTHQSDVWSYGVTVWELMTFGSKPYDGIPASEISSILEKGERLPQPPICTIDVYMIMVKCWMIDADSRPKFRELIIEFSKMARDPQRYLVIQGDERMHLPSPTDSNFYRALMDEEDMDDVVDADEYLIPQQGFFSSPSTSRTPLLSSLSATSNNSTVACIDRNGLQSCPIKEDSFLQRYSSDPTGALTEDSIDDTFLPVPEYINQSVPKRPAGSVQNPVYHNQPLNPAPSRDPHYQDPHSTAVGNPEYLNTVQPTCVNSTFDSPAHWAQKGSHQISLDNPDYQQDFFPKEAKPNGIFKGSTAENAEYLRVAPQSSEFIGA

Row | Compound | IC50 [1] | IC50 [2] | IC50 [3] | IC50 [4] | IC50 [5] | metabolised at 0.5 h, 5 µM [7] | metabolised at 0.5 h, 5 µM [11] | Drug metabolism [6] | Activity [8] | Drug metabolism [9] | Activity [10]
1 | COc1cc2c(Nc3ccc(OCc4cccc(F)c4)c(Cl)c3)ncnc2cc1OCCOCCn1ccnc1[N+](=O)[O-] | 7.64 µM | 5.06 µM | 6.23 µM | 0.0201 µM | 2.59 µM | – | – | – | – | – | –
2 | COc1cc2c(Nc3cccc(Br)c3)ncnc2cc1OCCCn1ccnc1[N+](=O)[O-] | 10.9 µM | 13.5 µM | 7.83 µM | 0.00049 µM | 2.82 µM | – | – | – | – | – | –
3 | Nc1n[n+]([O-])c2ccccc2[n+]1[O-] [TIRAPAZAMINE] | > 50 µM | > 50 µM | 6.9 µM | – | – | – | – | – | – | – | –
4 | COc1cc2c(Nc3ccc(F)c(Cl)c3)ncnc2cc1OCCCCn1ccnc1[N+](=O)[O-] | 1.54 µM | 2.67 µM | 1.41 µM | 0.00031 µM | 0.67 µM | – | – | – | – | – | –
5 | COc1cc2c(Nc3cccc(Br)c3)ncnc2cc1OCCCCCn1ccnc1[N+](=O)[O-] | 5.05 µM | 8.78 µM | 8.42 µM | 0.00033 µM | 2.54 µM | – | – | – | – | – | –
6 | COc1cc2c(Nc3ccc(OCc4cccc(F)c4)c(Cl)c3)ncnc2cc1OCCCCn1ccnc1[N+](=O)[O-] | 4.49 µM | 10.5 µM | 8.69 µM | – | 2.27 µM | – | – | – | – | – | –
7 | COc1cc2c(Nc3ccc(F)c(Cl)c3)ncnc2cc1OCCCn1ccnc1[N+](=O)[O-] | 6.14 µM | 5.91 µM | 4.31 µM | 0.00077 µM | 2.06 µM | – | – | – | – | – | –
8 | COc1cc2c(Nc3ccc(F)c(Cl)c3)ncnc2cc1OCCCCCCn1ccnc1[N+](=O)[O-] | 5.63 µM | 13.4 µM | 6.52 µM | 0.00144 µM | 1.84 µM | – | – | – | – | – | –
9 | COc1cc2c(Nc3ccc(OCc4cccc(F)c4)c(Cl)c3)ncnc2cc1OCCCCCn1ccnc1[N+](=O)[O-] | 14.1 µM | 19.9 µM | 14.4 µM | 0.0166 µM | 5.04 µM | – | – | – | – | – | –
10 | COc1cc2c(Nc3ccc(OCc4cccc(F)c4)c(Cl)c3)ncnc2cc1OCCCn1ccnc1[N+](=O)[O-] | 3.79 µM | 3.97 µM | 1.52 µM | 0.0305 µM | 0.94 µM | – | – | – | – | – | –
11 | COc1cc2c(Nc3ccc(F)c(Cl)c3)ncnc2cc1OCCCCCn1ccnc1[N+](=O)[O-] | 4.08 µM | 4.26 µM | 1.74 µM | – | 1.03 µM | – | – | – | – | – | –
12 | COc1cc2c(Nc3ccc(OCc4cccc(F)c4)c(Cl)c3)ncnc2cc1OCCCCCCn1ccnc1[N+](=O)[O-] | > 50 µM | > 50 µM | > 50 µM | 0.0355 µM | > 50 µM | – | – | – | – | – | –
13 | COc1cc2c(Nc3cccc(Br)c3)ncnc2cc1OCCCCCCn1ccnc1[N+](=O)[O-] | 10.5 µM | 30.2 µM | 20.2 µM | 0.00078 µM | 4.3 µM | – | – | – | – | – | –
14 | COc1cc2c(Nc3cccc(Br)c3)ncnc2cc1OCCCCn1ccnc1[N+](=O)[O-] | 4.02 µM | 3.09 µM | 1.97 µM | 0.00037 µM | 1.43 µM | – | – | – | – | – | –

Continued, in another order:

Row | IC50 [1] | IC50 [2] | IC50 [3] | IC50 [4] | IC50 [5] | metabolised at 0.5 h, 5 µM [7] | metabolised at 0.5 h, 5 µM [11] | Compound | Drug metabolism [6] | Activity [8] | Drug metabolism [9] | Activity [10]
15 | 8.77 µM | 9.77 µM | 6.43 µM | 0.00054 µM | 6.04 µM | – | – | C#Cc1cccc(Nc2ncnc3cc(OCCOCCn4ccnc4[N+](=O)[O-])c(OC)cc23)c1 | – | – | – | –
16 | 3.17 µM | 2.31 µM | 1.17 µM | – | – | – | – | C#Cc1cccc(Nc2ncnc3cc(OCCCn4ccnc4[N+](=O)[O-])c(OC)cc23)c1 | – | – | – | –
17 | 9.86 µM | 12.9 µM | 7.64 µM | 0.00032 µM | 5.52 µM | – | – | COc1cc2c(Nc3ccc(F)c(Cl)c3)ncnc2cc1OCCOCCn1ccnc1[N+](=O)[O-] | – | – | – | –
18 | 10.8 µM | 13 µM | 10.1 µM | 0.00082 µM | 3.44 µM | – | – | COc1cc2c(Nc3cccc(Br)c3)ncnc2cc1OCCOCCn1ccnc1[N+](=O)[O-] | – | – | – | –
19 | 2.52 µM | 2.21 µM | 1.08 µM | 0.00026 µM | 0.59 µM | – | – | C#Cc1cccc(Nc2ncnc3cc(OCCCCn4ccnc4[N+](=O)[O-])c(OC)cc23)c1 | – | – | – | –
20 | 1.31 µM | 0.77 µM | 0.18 µM | 0.00047 µM | 0.28 µM | < 10% | > 80% | C#Cc1cccc(Nc2ncnc3cc(OCCCCCn4ccnc4[N+](=O)[O-])c(OC)cc23)c1 | Metabolite detected | 12.46% | Metabolite detected | 26.15%
21 | 4.5 µM | 10.3 µM | 2.7 µM | 0.00057 µM | 1.37 µM | – | – | C#Cc1cccc(Nc2ncnc3cc(OCCCCCCn4ccnc4[N+](=O)[O-])c(OC)cc23)c1 | – | – | – | –
